Values quoted from earlier work in US20250331549A1, “AEROSOL-GENERATING ARTICLE WITH AVERSIVE AGENT” (PHILIP MORRIS PRODUCTS S.A., priority 2022, published 2025).
Structures can show the parent of a compound that is named as a salt. Where two headings read alike, the source gives them in different places.

[1] = reciprocal of the dilution that still has a bitter taste, known bittering agents, Table 1
[2] = quinine hydrochloride value is the set reference, denatonium benzoate value is estimated

Row | Compound | Bitterness value [1] | Bitterness value [2]
1 | COC1=C[C@@H](C)[C@@H]2C[C@H]3OC(=O)C[C@H]4C(C)=C(OC)C(=O)[C@H]([C@@]2(C)C1=O)[C@@]34C [Quassin, quassin] | 13,000,000 | –
2 | amarogentin | 58,000,000 | –
3 | C[C@@]12C[C@@H](c3ccoc3)OC(=O)[C@@H]1CC[C@]1(C)[C@H]2[C@@H]2C=C[C@@]1(O)C(=O)O2 [Columbin, columbin] | 60,000,000 | –
4 | C=C[C@H]1C[N@@]2CC[C@H]1C[C@H]2[C@H](O)c1ccnc2ccc(OC)cc12 [Quinine hydrochloride, quinine hydrochloride, reference compound] | 200,000 | 200,000
5 | CC[N+](CC)(CC(=O)Nc1c(C)cccc1C)Cc1ccccc1 [Denatonium benzoate, denatonium benzoate] | >100,000,000 | over 100,000,000
6 | CC1=C[C@H]2[C@H]3[C@H](C(C)=C4[C@H]5OC(=O)[C@@H](C)[C@@H]5CC[C@](C)(O)[C@@H]43)[C@@]13[C@@H]2[C@@](C)(O)CC[C@H]1[C@H](C)C(=O)O[C@@H]13 [Absinthin, absinthin] | 3,000,000 | –
